Results: PubChem BioAssay (NCI)
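Cultured in 96-well plates, cells were exposed to test compound for 48 hours across five concentrations. At the TGI there is no net growth.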

How the values were obtained:
Experiment in all cases: NCI tumour cell line growth inhibition, 48 h
[1] = tested on: 786-0 renal
[2] = tested on: A498 renal
[3] = tested on: A549 NSCLC
[4] = tested on: ACHN renal
[5] = tested on: BT-549 breast
[6] = tested on: CAKI-1 renal
[7] = tested on: CCRF-CEM leukemia
[8] = tested on: COLO 205 colon
[9] = tested on: DLD-1 colon
[10] = tested on: DMS 114 small cell lung
[11] = tested on: DMS 273 small cell lung
[12] = tested on: DU-145 prostate
[13] = tested on: EKVX NSCLC
[14] = tested on: HCC-2998 colon
[15] = tested on: HCT-116 colon
[16] = tested on: HCT-15 colon
[17] = tested on: HL-60(TB) leukemia
[18] = tested on: HOP-18 NSCLC
[19] = tested on: HOP-62 NSCLC
[20] = tested on: HOP-92 NSCLC
[21] = tested on: HS 578T breast
[22] = tested on: HT29 colon
[23] = tested on: IGROV1 ovarian
[24] = tested on: K-562 leukemia
[25] = tested on: KM12 colon
[26] = tested on: KM20L2 colon
[27] = tested on: LOX IMVI melanoma
[28] = tested on: LXFL 529 NSCLC
[29] = tested on: M14 melanoma
[30] = tested on: M19-MEL melanoma
[31] = tested on: MALME-3M melanoma
[32] = tested on: MCF7 breast
[33] = tested on: MDA-MB-231 breast
[34] = tested on: MDA-MB-435
[35] = tested on: MDA-N
[36] = tested on: MOLT-4 leukemia
[37] = tested on: NCI-H226 lung
[38] = tested on: NCI-H23 lung
[39] = tested on: NCI-H460 lung
[40] = tested on: NCI-H522 lung
[41] = tested on: NCI/ADR-RES ovarian
[42] = tested on: OVCAR-3 ovarian
[43] = tested on: OVCAR-4 ovarian
[44] = tested on: OVCAR-5 ovarian
[45] = tested on: OVCAR-8 ovarian
[46] = tested on: PC-3 prostate
[47] = tested on: RPMI-8226 leukemia
[48] = tested on: RXF 393 renal
[49] = tested on: RXF-631 renal
[50] = tested on: SF-268 CNS
[51] = tested on: SF-295 CNS
[52] = tested on: SF-539 CNS
[53] = tested on: SK-MEL-2 melanoma
[54] = tested on: SK-MEL-28 melanoma
[55] = tested on: SK-MEL-5 melanoma
[56] = tested on: SK-OV-3 ovarian
[57] = tested on: SN12C renal
[58] = tested on: SNB-19 CNS
[59] = tested on: SNB-75 CNS
[60] = tested on: SNB-78 CNS
[61] = tested on: SR leukemia
[62] = tested on: SW-620 colon
[63] = tested on: T-47D breast
[64] = tested on: TK-10 renal
[65] = tested on: U251 CNS
[66] = tested on: UACC-257 melanoma
[67] = tested on: UACC-62 melanoma
[68] = tested on: UO-31 renal
[69] = tested on: XF 498 CNS
[70] = tested on: P388 leukemia
[71] = tested on: P388/ADR leukemia
[72] = tested on: SN12K1 renal

## CC(=O)N(O)CCCCCNC(=O)CCC(=O)N(O)CCCCCNC(=O)CCC(=O)N(O)CCCCCN
[1]
  TGI: > 100 µM
[2]
  TGI: > 100 µM
[3]
  TGI: > 100 µM
[4]
  TGI: > 100 µM
[5]
  TGI: > 100 µM
[6]
  TGI: > 100 µM
[7]
  TGI: > 54.4 µM
[8]
  TGI: > 100 µM
[9]
  TGI: > 100 µM
[10]
  TGI: > 100 µM
[11]
  TGI: > 100 µM
[12]
  TGI: > 60.1 µM
[13]
  TGI: > 100 µM
[14]
  TGI: > 100 µM
[15]
  TGI: > 100 µM
[16]
  TGI: > 100 µM
[17]
  TGI: > 76.9 µM
[18]
  TGI: 83.2 µM
[19]
  TGI: > 100 µM
[20]
  TGI: > 100 µM
[21]
  TGI: > 100 µM
[22]
  TGI: > 100 µM
[23]
  TGI: > 100 µM
[24]
  TGI: > 100 µM
[25]
  TGI: > 100 µM
[26]
  TGI: > 100 µM
[27]
  TGI: > 100 µM
[28]
  TGI: > 100 µM
[29]
  TGI: > 100 µM
[30]
  TGI: > 100 µM
[31]
  TGI: > 100 µM
[32]
  TGI: > 100 µM
[33]
  TGI: > 100 µM
[34]
  TGI: > 100 µM
[35]
  TGI: > 100 µM
[36]
  TGI: > 82.8 µM
[37]
  TGI: > 92.3 µM
[38]
  TGI: > 100 µM
[39]
  TGI: > 54.9 µM
[40]
  TGI: > 100 µM
[41]
  TGI: > 100 µM
[42]
  TGI: > 100 µM
[43]
  TGI: > 100 µM
[44]
  TGI: 84 µM
[45]
  TGI: > 100 µM
[46]
  TGI: > 100 µM
[47]
  TGI: > 100 µM
[48]
  TGI: > 100 µM
[49]
  TGI: > 100 µM
[50]
  TGI: > 100 µM
[51]
  TGI: > 100 µM
[52]
  TGI: > 92.3 µM
[53]
  TGI: > 100 µM
[54]
  TGI: > 100 µM
[55]
  TGI: > 85.5 µM
[56]
  TGI: > 100 µM
[57]
  TGI: > 100 µM
[58]
  TGI: > 100 µM
[59]
  TGI: > 100 µM
[60]
  TGI: > 100 µM
[61]
  TGI: > 77.5 µM
[62]
  TGI: > 100 µM
[63]
  TGI: > 100 µM
[64]
  TGI: > 100 µM
[65]
  TGI: > 100 µM
[66]
  TGI: > 100 µM
[67]
  TGI: > 100 µM
[68]
  TGI: > 100 µM
[69]
  TGI: > 100 µM

## COc1cc2c(oc(=O)c3cc(C)cc(OC)c32)c2c(C3OC(C)C(O)C(C)(O)C3O)ccc(O)c12 (stereo unspecified)
[2]
  TGI: 1.29 µM
[3]
  TGI: 7.4 µM
[6]
  TGI: 2.06 µM
[7]
  TGI: 2.41 µM
[8]
  TGI: 1.41 µM
[9]
  TGI: 4.56 µM
[10]
  TGI: 1.17 µM
[11]
  TGI: 1.27 µM
[13]
  TGI: 2.31 µM
[14]
  TGI: 1.76 µM
[15]
  TGI: 6.12 µM
[16]
  TGI: 3.65 µM
[17]
  TGI: 0.251 µM
[18]
  TGI: 5.3 µM
[19]
  TGI: 1.08 µM
[20]
  TGI: 4.32 µM
[22]
  TGI: 4.81 µM
[23]
  TGI: 5.59 µM
[24]
  TGI: 3.73 µM
[25]
  TGI: 5.41 µM
[26]
  TGI: 5.04 µM
[27]
  TGI: 1.71 µM
[30]
  TGI: 1.64 µM
[31]
  TGI: 1.45 µM
[32]
  TGI: 3.99 µM
[36]
  TGI: 0.875 µM
[37]
  TGI: 1.21 µM
[38]
  TGI: 2.16 µM
[39]
  TGI: 0.763 µM
[40]
  TGI: 1.73 µM
[41]
  TGI: 2.51 µM
[42]
  TGI: 2.51 µM
[43]
  TGI: 2.14 µM
[44]
  TGI: 2.89 µM
[45]
  TGI: 1.99 µM
[70]
  TGI: 2.03 µM
[71]
  TGI: 3.41 µM
[47]
  TGI: 1.92 µM
[48]
  TGI: 1.18 µM
[50]
  TGI: 2.1 µM
[51]
  TGI: 1.29 µM
[52]
  TGI: 1.73 µM
[53]
  TGI: 1.56 µM
[54]
  TGI: 1.85 µM
[55]
  TGI: 1.79 µM
[56]
  TGI: 4.45 µM
[57]
  TGI: 2.39 µM
[72]
  TGI: 1.51 µM
[58]
  TGI: 4.63 µM
[59]
  TGI: 1.46 µM
[60]
  TGI: 5.32 µM
[62]
  TGI: 7.74 µM
[65]
  TGI: 2.42 µM
[66]
  TGI: 1.62 µM
[67]
  TGI: 1.13 µM
[68]
  TGI: 3.19 µM
[69]
  TGI: 1.15 µM
